Measured values published in EP4768498A1, “PEPTIDE, DROPLET FORMING KIT, DROPLET FORMING METHOD, HYDROPHOBIC SUBSTANCE CONCENTRATION METHOD, AND PROTEIN FOLDING METHOD” (National University Corporation Tokyo University Of …, priority 2023, dated 2026).
Positions of bridges follow the written chain, without caps; N, C: chain ends. No end group written: not given here.

Legend:
[1] = Transmittance measurement (transition temperature); type: physicochemical; settings: 2 wt% solution, 50 mM Tris-HCl (pH: 7.5) containing 0.3 M sodium chloride, absorbance at 600 nm
Description: FF-ELP4 or LL-ELP4 was dissolved in 50 mM Tris-HCl (pH: 7.5) containing 0.3 M sodium chloride and incubated at 60°C. LL-ELP4 was dissolved in 50 mM Tris-HCl (pH: 7.5) to a final concentration of 2 wt%. Since FF-ELP4 could not be dissolved to a final concentration of 2 wt%, it was dissolved in 50 mM Tris-HCl (pH: 7.5) to a final concentration of 1 wt%. Transmittance measurement was carried out using an ultraviolet-visible spectrophotometer V-650 manufactured by JASCO Corporation (Tokyo, Japan). For the samples prepared as described above, absorbance at a wavelength of 600 nm was monitored while changing the temperature. A quartz cell (optical path length: 10 mm) of Sansyo Co., Ltd. was used as a measurement cell. […] LL-ELP4-SS was dissolved in 50 mM Tris-HCl (pH: 7.5) containing 0.3 M sodium chloride and incubated at 60°C. LL-ELP4-SS was dissolved in 50 mM Tris-HCl (pH: 7.5) to a final concentration of 2 wt%. Transmittance measurement was carried out using an ultraviolet-visible spectrophotometer V-650 manufactured by JASCO Corporation (Tokyo, Japan). For the samples prepared as described above, absorbance at a wavelength of 600 nm was monitored while changing the temperature. A quartz cell (optical path length: 10 mm) of Sansyo Co., Ltd. was used as a measurement cell.

[2] = Phase-contrast microscope observation of droplets; type: physicochemical; settings: 60°C
Description: Phase-contrast microscope observation was carried out using IX-73 manufactured by Olympus Corporation (Tokyo, Japan). A sample was dropped onto a slide glass, and a cover glass was placed over the sample through a silicone spacer having a thickness of 0.2 mm. The sample was observed while incubating at 60°C. The samples were prepared by dissolving FF-ELP4 or LL-ELP4 in 50 mM Tris-HCl (pH: 7.5) containing 0.3 M sodium chloride. FF-ELP4 was dissolved to a final concentration of 1 wt%. LL-ELP4 was dissolved to a final concentration of 5 wt%.
(§1) Phase-contrast microscope observation was carried out using IX-73 manufactured by Olympus Corporation (Tokyo, Japan). A sample in which a cover glass was placed on the peptide solution through a silicone spacer having a thickness of 0.2 mm on a slide glass was observed while incubating at 60°C. The peptide solution was prepared by dissolving LL-ELP4 to 2 wt% and LL-ELP4-SS to 0.7 mM (0.16 wt%) in 50 mM Tris-HCl (pH: 7.5) containing 0.3 M sodium chloride.
as §1, with “LL-ELP4-SS” for “LL-ELP4”, “wt%” for “wt% and LL-ELP4-SS to 0.7 mM (0.16 wt%)”
(§2) A folding test of denatured BPTI was performed in the same manner as in <Folding test of denatured BPTI: LL-ELP4/LL-ELP4-SS mixed solution> described above, except that LL-ELP4-SS was used alone instead of the combination of LL-ELP4 and LL-ELP4-SS. The final concentration of LL-ELP4-SS in the test solution was 0.16 wt%.

[3] = tested on: Reduced and denatured BPTI; assay: Evaluation of incorporation of denatured BPTI into droplets; set-up: species or system Bovine; settings: for Reduced and denatured BPTI Inside droplets / Reduced and denatured BPTI Outside droplets: BPTI 30 µM, 60°C overnight
Description: (§3) FF-ELP4 or LL-ELP4 was dissolved in 50 mM Tris-HCl (pH: 7.5) containing 0.3 M sodium chloride, and pre-incubated at 60°C for 1 minute. […] The mixture was incubated at 60°C overnight, centrifuged (8,000 rpm, 25°C, 30 seconds) using a high-spin mini centrifuge HSC-12000 manufactured by Taiyo Corporation (Osaka, Japan), and quickly separated into a supernatant and a precipitate (droplets). 400 µL of a 1 M HCl aqueous solution was added to each of the supernatant and the precipitate to stop the reaction. For each of the supernatant and the precipitate, the reduced and denatured BPTI or the native BPTI was quantified by HPLC analysis. The analysis was performed by reverse-phase high-performance liquid chromatography (RP-HPLC) using a Primaide HPLC system (1410 UV detector, 1310 column oven, 1110 pump) manufactured by Hitachi High-Tech Corporation (Tokyo, Japan) and a TSKgel Protein C4-300 column (4.6 mmφ × 150 mm) manufactured by Tosoh Corporation (Tokyo, Japan) at a flow rate of 1.0 mL·min^-1 (Solvent A: water containing 0.05% TFA, Solvent B: acetonitrile containing 0.05% TFA; ratio of Solvent A: linear gradient of 95% at 0 min, 80% at 15 min, and 30% at 115 min).

Native BPTI = assay: Evaluation of incorporation of native BPTI into droplets; set-up: species or system Bovine; settings: BPTI 30 µM, 60°C overnight
Description: as §3

[4] = tested on: Reduced and denatured BPTI; assay: Folding test of denatured BPTI; type: biochemical, Bovine; settings: LL-ELP4-SS alone 0.16 wt%, no droplets, no centrifugation, BPTI 30 µM, 60°C
Description: LL-ELP4 and LL-ELP4-SS were dissolved in a buffer (50 mM Tris-HCl, 0.3 M NaCl, pH: 7.5) and pre-incubated at 60°C for 3 minutes. […] The mixture was incubated at 60°C, and when 1 minute, 10 minutes, and 60 minutes had elapsed, it was centrifuged (10,000 rpm, 25°C, 10 seconds) using a high-spin mini centrifuge HSC-12000 manufactured by Taiyo Corporation (Osaka, Japan) and quickly separated into a supernatant and a precipitate. To both the supernatant and the precipitate, 1 M aqueous HCl was added to quench the reaction. The samples were analyzed by reverse-phase high-performance liquid chromatography (RP-HPLC) using a Primaide HPLC system (1410 UV detector, 1310 column oven, and 1110 pump) manufactured by Hitachi, Ltd. (Tokyo, Japan) and a TSKgel Protein C4-300 column (4.6 mm i.d. × 150 mm) manufactured by Tosoh Corporation (Tokyo, Japan) at a flow rate of 1.0 mL min-1 (Solvent A: water containing 0.05% TFA; Solvent B: acetonitrile containing 0.05% TFA; linear gradient of Solvent A: 95% at 0 min, 80% at 15 min, and 30% at 115 min).
as §2

Row | Substance | transition temperature [1] [°C] | droplets observed ([2]; 5 wt% solution) | Reduced and denatured BPTI Inside droplets ([3]; peptide 2 wt%) [%] | Reduced and denatured BPTI Outside droplets ([3]; peptide 2 wt%) [%] | Reduced and denatured BPTI Inside droplets ([3]; peptide 5 wt%) [%] | Reduced and denatured BPTI Outside droplets ([3]; peptide 5 wt%) [%] | aggregation of reduced and denatured BPTI recovered from the droplets ([3]; peptide 5 wt%, redispersed in water) | Native BPTI Inside droplets (Native BPTI; peptide 2 wt%) [%] | Native BPTI Outside droplets (Native BPTI; peptide 2 wt%) [%] | Native BPTI Inside droplets (Native BPTI; peptide 5 wt%) [%] | Native BPTI Outside droplets (Native BPTI; peptide 5 wt%) [%] | droplet formation ([2]; 0.16 wt% solution in the folding test) | droplets observed ([2]; 2 wt% solution) | added reduced and denatured BPTI detected as native structural BPTI [4] [%]
1 | Ac-LLVPGVGVPGVGVPGVGVPGVG-NH2 [LL-ELP4, LL-(VPGVG)4] | 53 | droplets of appropriate size were observed | 91 | 9 | > 99 | < 1 | aggregation was suppressed | 3 | 97 | 7 | 93 |  |  | 
2 | LL-(VPGVG)2-CGHC-(VPGVG)2 (LLVPGVGVPGVGCGHCVPGVGVPGVG; disulfide 13-16 (inferred)) [LL-ELP4-SS] | 48 |  |  |  |  |  |  |  |  |  |  | droplets were not formed | Droplets of appropriate size were observed | ≥ 99
